Measurements: paper PMC6273267 (Molecules, 2016)
Where two headings read alike, the source gives them in different places.

Experiments:
AChE (E.C. 3.1.1.7) [1] = target: T1, AChE (E.C. 3.1.1.7) (Electrophorus electricus, UniProt O42275); test: biochemical; conditions: for Selectivity Index: Selectivity Index = IC50 (BuChE)/IC50 (AChE); for IC50: means ± SEM of three experiments, pH 8.0, 37 °C, 15 min incubation, read-out: AChE Inhibition (IC50)
T1 construct: purchased Sigma-Aldrich (St. Louis, MO, USA)
T1 sequence (O42275 24-633): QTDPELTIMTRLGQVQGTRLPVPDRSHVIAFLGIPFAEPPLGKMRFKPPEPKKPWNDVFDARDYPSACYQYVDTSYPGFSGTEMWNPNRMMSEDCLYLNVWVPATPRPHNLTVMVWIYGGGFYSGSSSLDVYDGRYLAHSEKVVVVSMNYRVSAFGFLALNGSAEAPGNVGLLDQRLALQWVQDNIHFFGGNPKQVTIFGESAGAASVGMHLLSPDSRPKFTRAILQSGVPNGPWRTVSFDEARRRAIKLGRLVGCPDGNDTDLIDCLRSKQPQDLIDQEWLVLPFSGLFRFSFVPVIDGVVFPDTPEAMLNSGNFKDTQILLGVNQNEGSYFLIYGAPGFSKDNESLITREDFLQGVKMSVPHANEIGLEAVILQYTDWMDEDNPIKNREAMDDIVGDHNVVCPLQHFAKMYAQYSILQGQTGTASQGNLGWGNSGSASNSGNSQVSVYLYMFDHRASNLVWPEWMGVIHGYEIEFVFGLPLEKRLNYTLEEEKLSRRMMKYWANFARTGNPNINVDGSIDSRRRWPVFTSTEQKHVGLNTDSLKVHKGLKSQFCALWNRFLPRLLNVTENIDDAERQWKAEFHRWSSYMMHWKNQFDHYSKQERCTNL
Protocol: (§1) The inhibitory activity of the synthesized graveoline analogs on cholinesterase in vitro was studied using the Ellman method.
(§2) Stock solutions of all graveoline analogs (10 mM) were prepared using DMSO and stored at −80 °C. Further dilutions to working concentrations were made with double-distilled deionized water. AChE (E.C. 3.1.1.7, obtained from electric eel), BuChE (E.C. 3.1.1.8, obtained from equine serum), 5,5′-dithiobis-(2-nitrobenzoic acid) (Ellman’s reagent, DTNB), acetylthiocholine chloride (ATC), butylthiocholine chloride, thioflavin T, and tarcine hydrochloride were purchased from Sigma-Aldrich (St. Louis, MO, USA). Aβ42 was purchased from Millipore (Billerica, MA, USA). 3-(4,5-Dimethylthiazol-2-yl)-2,5-diphenyltetrazolium bromide (MTT) was purchased formal Aladdin (Shanghai, China). The SH-SY5Y cell line was obtained from the Animal experimental center of Sun Yat-sen University.
(§3) The solutions of the enzyme were prepared to achieve 2.0 units/mL in 2 mL aliquots. The experiment system contained phosphate buffer, pH 8.0 (1 mL), 50 μL of 0.01 M substrate (ATC), 50 μL of 0.01 M DTNB, and 10 μL of enzyme. The substrate was added into the experiment system containing the DTNB, buffer, and enzyme with inhibitors after 15 min of incubation. […] Calculations were conducted according to the assay of Ellman et al.. The in vitro BuChE assay was performed using the method described above.

BuChE (E.C. 3.1.1.8) = target: T2, BuChE (E.C. 3.1.1.8) (Equus caballus, UniProt P81908); test: biochemical; conditions: means ± SEM of three experiments; pH 8.0, 37 °C, 15 min incubation; read-out: BuChE Inhibition (IC50)
T2 construct: purchased Sigma-Aldrich (St. Louis, MO, USA); host or cells: equine serum
T2 sequence (P81908 whole entry): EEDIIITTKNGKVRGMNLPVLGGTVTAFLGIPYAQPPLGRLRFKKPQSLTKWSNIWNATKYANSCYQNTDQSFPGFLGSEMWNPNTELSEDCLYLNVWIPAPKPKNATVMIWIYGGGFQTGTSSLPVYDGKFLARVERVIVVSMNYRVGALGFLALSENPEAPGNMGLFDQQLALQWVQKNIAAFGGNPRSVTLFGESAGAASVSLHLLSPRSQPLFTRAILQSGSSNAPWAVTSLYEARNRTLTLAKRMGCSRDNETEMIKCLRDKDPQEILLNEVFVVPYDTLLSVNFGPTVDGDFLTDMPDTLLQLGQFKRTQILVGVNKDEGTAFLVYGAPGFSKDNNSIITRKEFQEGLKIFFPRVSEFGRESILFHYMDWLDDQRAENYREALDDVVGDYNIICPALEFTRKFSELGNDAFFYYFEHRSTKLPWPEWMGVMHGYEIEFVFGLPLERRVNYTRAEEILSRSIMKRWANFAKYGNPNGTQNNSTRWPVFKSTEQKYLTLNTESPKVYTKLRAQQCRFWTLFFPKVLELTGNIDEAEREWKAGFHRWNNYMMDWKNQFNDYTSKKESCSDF
Protocol: as §1, §2, §3

AChE (E.C. 3.1.1.7) [2] = target: T1, AChE (E.C. 3.1.1.7); test: biochemical; conditions: stated in the introduction, early efforts
AChE = target: T3, AChE (Electrophorus electricus, UniProt O42275); test: Kinetic characterization of AChE inhibition (Lineweaver-Burk plot); format: biochemical, electric eel; conditions: lines intersect in the second quadrant
T3 construct: purchased Sigma-Aldrich (St. Louis, MO, USA)
T3 sequence (O42275 24-633): as the sequence (O42275 24-633) above
Protocol: When the small-molecule ligand was combined with the AChE active center (CAS), the type of inhibition of the enzyme was classified as competitive inhibition; by contrast, when the small-molecule ligand was acted on the PAS, the enzymatic inhibition was classified as non-competitive inhibition. […] This conclusion was verified by subsequent molecular docking experiments.
Figure 2 Lineweaver-Burk plot for the inhibition of AChE by 5c.
The kinetic characterization of AChE was performed using the reported method. Three concentrations ([…]) of the substrate were mixed in 1 mL 0.1 M KH2PO4/K2HPO4 buffer (pH 8.0) containing 10 μL AChE, 50 μL DTNB, and 50 μL substrate. The test compound was added into the assay solution and was pre-incubated with the AChE at 37 °C for 15 min followed by addition of the substrate. The kinetic characterization of the AChE-catalyzed ATC hydrolysis was performed spectrometrically at 412 nm. A parallel control with no inhibitor in the mixture allowed adjusting activities to be measured at various times.

[3] = test system: AChE-induced Aβ42 aggregation; test: Thioflavin T-based fluorometric assay of AChE-induced Aβ42 aggregation; format: biochemical; conditions: 5, 10, 20, 40 and 80 μM; 48 h at 37 °C; effect related to compound concentration
Protocol: To explore the combining effect of graveoline analogs on the AChE functional site PAS, compound 5c was chosen to study the inhibitory activity of AChE-induced Aβ aggregation using thioflavin T-based fluorometric assay. […] The inhibitory effect of 5c was related to the compound concentration. […]
Figure 4 Determination of 5c inhibition potency on AChE-induced amyloid-β (Aβ)42 aggregation.
The self-mediated Aβ42 aggregation was evaluated through the thioflavin-T fluorescence assay. A mixture of 230 μM Aβ42 peptide, 2.30 μM AChE (Aβ42/AChE molar ratio 100:1), and the indicated concentrations of compound 5c (5, 10, 20 ,40 and 80 μM) were added to the phosphate buffer (pH 7.40, 0.01 M). After co-incubated in 37 °C for 48 h, thioflavin-T (5 μM in 50 mM glycine-NaOH buffer, pH 8.00) was added. Fluorescence was monitored with excitation at 450 nm (λex) and 485 nm (λem) by the Spectrofluorimeter LS55. The fluorescence intensity values reached at the plateau (around 300 s) were recorded after subtracting the background fluorescence. The solutions containing Aβ42, and Aβ42 plus HuAChE was checked as control. Each experiment was run in triplicate.

SH-SY5Y cells = test: Neurocyte toxicity test in vitro (MTT method); format: cell-based; conditions: 40 μM, 48 h
Protocol: Thus, we used the methyl thiazolyl tetrazolium (MTT) method to perform a neurocyte (SH-SY5Y) toxicity test in vitro. […] However, cell viability was greatly influenced at 20 and 40 μM concentrations and the inhibition rates were more than 90%. […] However, compared with the cholinesterase activity at the nanomole level, this level of cytotoxicity is acceptable. […]
Figure 5 Inhibition for SH-SY5Y of compounds 4a–4c, 5a–5c, 6a–6b and curcumin at different concentrations.
The SH-SY5Y cell line was seeded on 96-well plates at a density of 1.0 × 10^4 cells/well. After overnight incubation, the cells were treated with various concentrations (0.1, 1, 20, and 40 μM) of graveoline derivatives for 48 h. Subsequently, 10 μL of 5 mg/mL MTT solution was added to each well and further incubated for 4 h at 37 °C. The solution was carefully removed, and each well was treated with dimethyl sulfoxide (DMSO) (200 μL for each well). The optical density of the wells was then read on the microplate reader at 490 nm. The parallel tests of all drug doses were performed in triplicate.

Structure (SMILES) | Selectivity Index (AChE (E.C. 3.1.1.7) [1]) | IC50 (AChE (E.C. 3.1.1.7) [1]) [µM] | IC50 (BuChE (E.C. 3.1.1.8)) [µM] | IC50 (AChE (E.C. 3.1.1.7) [2]) [µM] | type of inhibition of AChE (AChE) | inhibition of AChE-induced Aβ42 aggregation [3] | neurocyte inhibition rate (SH-SY5Y cells) [%]
Cc1ccc(-c2cc(=O)c3ccccc3n2C)cc1 [Compound 2, 1-Methyl-2-p-tolylquinolin-4(1H)-one] | 3 | 3.65 ± 0.038 | 9.306 ± 0.076 | 3.65 | – | – | –
CN(C)CCNCc1ccc(-c2cc(=O)c3ccccc3n2C)cc1 [Compound 4a, 2-(4-((2-(Dimethylamino)ethylamino)methyl)phenyl)-1-methylquinolin-4(1H)-one] | 45 | 0.0785 ± 0.00176 | 3.52 ± 0.046 | – | – | – | –
Cn1c(-c2ccc(CNCCN3CCCC3)cc2)cc(=O)c2ccccc21 [Compound 4b, 1-Methyl-2-(4-((2-(pyrrolidin-1-yl)ethylamino)methyl)phenyl)quinolin-4(1H)-one] | – | 0.0102 ± 0.00133 | 2.47 ± 0.085 | – | – | – | –
Cn1c(-c2ccc(CNCCN3CCCCC3)cc2)cc(=O)c2ccccc21 [Compound 4c, 1-Methyl-2-(4-((2-(piperidin-1-yl)ethylamino)methyl)phenyl)quinolin-4(1H)-one] | 160 | 0.00963 ± 0.00076 | 1.54 ± 0.029 | – | – | – | –
CN(C)CCCNCc1ccc(-c2cc(=O)c3ccccc3n2C)cc1 [Compound 5a, 2-(4-((3-(Dimethylamino)propylamino)methyl)phenyl)-1-methylquinolin-4(1H)-one] | 80 | 0.0334 ± 0.00078 | 2.68 ± 0.032 | – | – | – | –
Cn1c(-c2ccc(CNCCCN3CCCC3)cc2)cc(=O)c2ccccc21 [Compound 5b, 1-Methyl-2-(4-((3-(pyrrolidin-1-yl)propylamino)methyl)phenyl)quinolin-4(1H)-one] | 291 | 0.00647 ± 0.00015 | 1.89 ± 0.054 | – | – | – | –
Cn1c(-c2ccc(CNCCCN3CCCCC3)cc2)cc(=O)c2ccccc21 [Compound 5c, 1-Methyl-2-(4-((3-(piperidin-1-yl)propylamino)methyl)phenyl)quinolin-4(1H)-one] | 486 | 0.00236 ± 0.00024 | 1.15 ± 0.031 | – | mixed inhibition | significantly inhibit | –
CN(C)CCCCNCc1ccc(-c2cc(=O)c3ccccc3n2C)cc1 [Compound 6a, 2-(4-((4-(Dimethylamino)butylamino)methyl)phenyl)-1-methylquinolin-4(1H)-one] | 103 | 0.0355 ± 0.00096 | 3.67 ± 0.039 | – | – | – | –
Cn1c(-c2ccc(CNCCCCN3CCCC3)cc2)cc(=O)c2ccccc21 [Compound 6b, 1-Methyl-2-(4-((4-(pyrrolidin-1-yl)butylamino)methyl)phenyl)quinolin-4(1H)-one] | 193 | 0.0126 ± 0.00057 | 2.43 ± 0.049 | – | – | – | –
COc1cc(/C=C/C(=O)CC(=O)/C=C/c2ccc(O)c(OC)c2)ccc1O [curcumin] | – | – | – | – | – | – | 57.3
